Assay results published in article PMC10989020, “Preclinical characterization of a non-peptidomimetic HIV protease inhibitor with improved metabolic stability” (Antimicrobial Agents and Chemotherapy, 2024).
Read-outs that look alike come from different tables or passages of the source.

Legend:
HIV-1IIIb = test: Two-drug in vitro combination assay in MT-2 cells (MacSynergy II); format: cell-based; conditions: for Combination effect: pairwise combination with GS-9770; for Antagonism volume / Synergy volume: pairwise combination with GS-9770, 99% confidence, MT-2/HIV-1IIIb
Protocol: Anti-HIV-1 assays evaluating the in vitro antiviral effect of two-drug combinations were performed in MT-2 cells as previously described ([26]). Data were normalized to positive and negative controls in each plate and expressed as a percentage of protection from CPE-dependent cell death and analyzed with the MacSynergy II software. Combination data were analyzed at the 99% confidence level, with synergy/antagonism volumes defined as follows: high synergy (>100 µM^2%), moderate synergy (50 to <100 uM^2%), additivity (>−50 to <50 µM^2%), and antagonism (<−50 µM^2%).

[1] = system: HIV-1 mutants resistant to NRTIs, NNRTIs, INSTIs
[2] = Metabolic stability in human liver microsomes; format: in vitro ADME
HIV-1 IIIb = test: 5-day cytoprotection antiviral assay in MT-4 cells; format: cell-based
[3] = Cytotoxicity in uninfected MT-4 cells; format: cell-based, human; conditions: human, uninfected (mock infected) MT-4 T cells, MT-4 T cell line
Protocol: (§1) Compound cytotoxicity assessment in MT-4 cells, primary CD4+ T lymphocytes, and MDMs was carried out using a protocol identical to the antiviral assay except uninfected cells were used and tested with higher concentration ranges of test compounds. Assessment of cytotoxicity in additional human cell lines (Gal-PC3, Gal-HepG2, HEp-2, Huh-7, MRC-5, HepG2-NTCP, Huh7-Lunet HCV 1b and 2a replicons, NHBE, A549-hACE2) and primary human PBMCs (resting and stimulated with PHA/IL-2) and hepatocytes have been described previously ([19]). For all cytotoxicity assays, the CC50 value for puromycin was determined as a positive internal control and to assess assay sensitivity in each cell type. The effect of tested compounds on cell viability was measured using a CellTiter-Glo readout, performed according to the manufacturer’s recommendations.

MT-4 T cell line = test: Cytotoxicity in uninfected MT-4 cells; format: cell-based, human; conditions: mock infected
Protocol: as §1

HIV-1 BaL [4] = test: p24 production antiviral assay in CD4+ T-lymphocytes; format: cell-based
From the text: (§2) Antiviral assays performed in HIV-1BaL infected CD4 +T-lymphocytes and monocyte-derived macrophages (MDMs) have been described previously ([18]). Cell-free supernatants derived from the CD4 +T cell and macrophage cultures were harvested 7- and 12-days post-infection, respectively, and the amount of HIV present was quantified by p24 antigen enzyme-linked immunosorbent assay (ELISA, Perkin Elmer, Waltham, MA) performed according to the manufacturer’s protocol.

[5] = Cytotoxicity in CD4+ T-lymphocytes; format: cell-based; conditions: human, uninfected (mock infected) primary CD4+ T lymphocytes
Protocol: as §1

HIV-1 BaL [6] = test: p24 production antiviral assay in monocyte-derived macrophages; format: cell-based
From the text: as §2

[7] = Cytotoxicity in monocyte-derived macrophages; format: cell-based; conditions: human, uninfected (mock infected) monocyte-derived macrophages
Protocol: as §1

[8] = system: panel of 49 patient-derived HIV-1 reporter viruses with PI resistance-associated substitutions; format: cell-based
[9] = system: HIV-1LAI wild type and site-directed PR mutants; test: microbe, parasite or virus in culture; format: cell-based
[10] = single oral dose co-administered with a pharmacological boosting agent; cited from earlier work
[11] = biological target: recombinant HIV-1 protease (Human immunodeficiency virus type 1 group M subtype B, UniProt P04585); test: biochemical
Protocol: For the HIV protease assay, recombinant HIV-1 protease expression, purification, and enzymatic assay using a fluorogenic readout were performed as previously described with some minor changes ([22]). […] After a 20-minute pre-incubation, the enzymatic reaction was initiated by the addition of the fluorogenic substrate to a final concentration of 40 µM and a final volume of 100 µL. The reaction was measured over 20 minutes on a Tecan Infinite M1000 plate reader using excitation and detection wavelengths of 320 nm and 420 nm, respectively.

Cytotoxicity in Gal-PC3 = format: cell-based; conditions: human, Gal-PC3 cells
Protocol: as §1

[12] = Cytotoxicity in Gal-HepG2; format: cell-based; conditions: human, Gal-HepG2 cells
Protocol: as §1

Cytotoxicity in HEp-2 = format: cell-based; conditions: human, HEp-2 cells
Protocol: as §1

Cytotoxicity in Huh-7 = format: cell-based; conditions: human, Huh-7 cells
Protocol: as §1

Cytotoxicity in MRC-5 = format: cell-based; conditions: human, MRC-5 cells
Protocol: as §1

[13] = Cytotoxicity in primary human hepatocytes; format: cell-based
Protocol: as §1

[14] = Cytotoxicity in unstimulated PBMCs; format: cell-based; conditions: human, unstimulated (resting) PBMCs
Protocol: as §1

[15] = Cytotoxicity in stimulated PBMCs; format: cell-based; conditions: human
Protocol: as §1

[16] = Cytotoxicity across human cell types (summary ranges); format: cell-based; conditions: human, human cell lines and primary cells (all cell types tested); across all of the cell types tested; read-out: mean CC50 range
Protocol: as §1

Compound: CC(C)OC(=O)[C@H](C)N[P@](=O)(CO[C@H](C)Cn1cnc2c(N)ncnc21)Oc1ccccc1 [TAF, tenofovir alafenamide]
- Combination effect (HIV-1IIIb): Highly synergistic
- Antagonism volume (HIV-1IIIb): −4 ± 7 µM^2.%
- Synergy volume (HIV-1IIIb): 166 ± 51 µM^2.%

Compound: COc1cc2c(cc1Cc1cccc(Cl)c1F)c(=O)c(C(=O)O)cn2[C@H](CO)C(C)C [EVG, elvitegravir]
- Fold resistance (mutant/wildtype EC50 ratio) ([1]; E92Q+N155H): >50
- Fold resistance (mutant/wildtype EC50 ratio) ([1]; E138K+Q148K): >50
- Fold resistance (mutant/wildtype EC50 ratio) ([1]; G140S+Q148R): >50
- Fold resistance (mutant/wildtype EC50 ratio) ([1]; Q148+N155H): >50

Compound: COC(=O)N[C@H](C(=O)N[C@@H](Cc1ccccc1)[C@@H](O)CN(Cc1ccc(-c2ccccn2)cc1)NC(=O)[C@@H](NC(=O)OC)C(C)(C)C)C(C)(C)C [ATV, atazanavir]
- Eh% (percent predicted hepatic extraction) [2]: 63%
- Predicted CL (predicted human clearance) [2]: 0.8 L/h/kg
- half-life ([2]; read-out: T½ in the presence of human liver microsomes): 24 min
- EC50 (HIV-1 IIIb; Human immunodeficiency virus 1, IIIB, T-cell, 120 h): 11 ± 3 nM
- SI (CC50/EC50 ratio) (HIV-1 IIIb; MT-4 T cell line): 4,700
- 95% effective concentration (EC95) (HIV-1 IIIb; calculated from MT-4/HIV-1IIIb EC50 and Hill coefficient): 19.5 nM
- CC50 [3]: > 50000 nM
- CC50 (MT-4 T cell line): 51000 ± 8000 nM
- SI (CC50/EC50 ratio) (HIV-1 BaL [4]): >12,000
- EC50 (HIV-1 BaL [4]; Human immunodeficiency virus 1, T-lymphocyte, HIV-1BaL infected): 4.3 ± 1.9 nM
- CC50 [5]: > 50000 nM
- SI (CC50/EC50 ratio) (HIV-1 BaL [6]): >3,100
- EC50 (HIV-1 BaL [6]; Human immunodeficiency virus 1, Macrophage, HIV-1BaL infected): 16 ± 12 nM
- CC50 [7]: > 50000 nM
- data points with fold change in EC50 above limit [8]: five
- mean fold change (FC) in EC50 vs wild-type HIV-1 (geometric mean) ([8]; 49 PI-resistant reporter viruses): 9.1 fold
- isolates with complete loss of activity ([8]; of 49 PI-resistant clinical isolates): 3
- isolates with greater than 10-fold loss in susceptibility ([8]; of 49 isolates, cutoff 10-fold): 16
- EC50 ([9]; Human immunodeficiency virus 1, PR L24I M46L A77I V82A): 4.2 ± 0.8 nM
- EC50 ([9]; Human immunodeficiency virus 1, PR L24I M46L I64V A77I V82A): 11.7 ± 1.4 nM
- EC50 ([9]; Human immunodeficiency virus 1, PR M46L A77I V82A): 6.9 ± 1.8 nM
- EC50 ([9]; Human immunodeficiency virus 1, PR V82A): 7.6 ± 3.3 nM
- EC50 ([9]; Human immunodeficiency virus 1, Wild type (WT) HIV-1LAI): 5.7 ± 3.6 nM
- fold-change relative to WT ([9]; PR L24I M46L A77I V82A): 0.7 fold
- fold-change relative to WT ([9]; PR L24I M46L I64V A77I V82A): 2.1 fold
- fold-change relative to WT ([9]; PR M46L A77I V82A): 1.2 fold
- fold-change relative to WT ([9]; PR V82A): 1.3 fold
- fold-change relative to WT ([9]; Wild type (WT) HIV-1LAI): 1.0 fold
- plasma half-life in humans [10]: 516 min
- Ki [11]: 0.023 nM

Compound: Nc1nc(=O)n([C@@H]2CS[C@H](CO)O2)cc1F [FTC, emtricitabine]
- Combination effect (HIV-1IIIb): Highly synergistic
- Antagonism volume (HIV-1IIIb): −8 ± 11 µM^2.%
- Synergy volume (HIV-1IIIb): 139 ± 24 µM^2.%
- Fold resistance (mutant/wildtype EC50 ratio) ([1]; 6TAMs): 23 ± 21
- Fold resistance (mutant/wildtype EC50 ratio) ([1]; K65R): 12 ± 6
- Fold resistance (mutant/wildtype EC50 ratio) ([1]; M184V): >141

Compound: COc1ccc(C[C@H](N)C(=O)N[C@H]2[C@@H](O)[C@H](n3cnc4c(N(C)C)ncnc43)O[C@@H]2CO)cc1 [Puromycin, puromycin]
- CC50 (Cytotoxicity in Gal-PC3): 450 ± 170 nM
- CC50 [12]: 1400 ± 800 nM
- CC50 (Cytotoxicity in HEp-2): 600 ± 300 nM
- CC50 (Cytotoxicity in Huh-7): 800 ± 700 nM
- CC50 (Cytotoxicity in MRC-5): 310 ± 200 nM
- CC50 [13]: 1600 ± 200 nM
- CC50 [14]: 540 ± 210 nM
- CC50 [15]: 800 ± 150 nM
- CC50 [16]: 310 to 1600 nM
